Hemolysis data for 8 molecules are collected here from publication PMC7684578, “Isopedopeptins A–H: Cationic Cyclic Lipodepsipeptides from Pedobacter cryoconitis UP508 Targeting WHO Top-Priority Carbapenem-Resistant Bacteria” (ACS Chemical Biology, 2020).

Each structure is given as a SMILES string. Starred links: 1 amine or outer side, 2 acyl side, 3 side chain; linkers in the order of their positions; H or OH if unused. Positions of bridges follow the written chain, without caps; N, C: chain ends. Non-standard residues stand in square brackets, D forms with d. Residues, ends and D or L forms follow the SMILES beside them. X4 = CC(C)CCC=CCCC[C@H](CC(=O)[*:1])O[*:2]; X6 = CC(C)CCCCC=CC[C@H](CC(=O)[*:1])O[*:2]; X5 = CC(C)CCCCCCC[C@H](CC(=O)[*:1])O[*:2]; X3 = CC(C)CCCCC[C@H](CC(=O)[*:1])O[*:2]; X7 = CCCCCCC=CC[C@H](CC(=O)[*:1])O[*:2]; X2 = CCCCCCC[C@H](CC(=O)[*:1])O[*:2]; Val(3-OH) = CC(C)(O)[C@H](N)C(=O)O; X1 = C/C=C(/N[*:1])C(=O)[*:2]; Dab = NCC[C@H](N)C(=O)O; Dap = NC[C@H](N)C(=O)O Some results are limits rather than exact numbers.

The data set is described as follows: in vitro. The format is cell-based. The conditions noted are these: human, pH 7.4, Hemolysis (%). The procedure:
positive control (Bortezomib) SI of <5%. The half maximal inhibitory concentration (IC50) was determined from log concentration-effect curves using non-linear regression analysis.
Frequency of resistance (FoR). For the determination of the FoR, the MIC of compound 2 was first evaluated on solid MH-agar medium prepared in 35 mm diameter plates. Each plate contained 4 mL agar with the appropriate amount of compound. Bacterial cultures were grown and prepared as described for the MIC assay. 13 µL of bacterial culture diluted to 0.5 MacFarland was inoculated into 1 mL 0.9% NaCl resulting in ~2 × 10^6 CFU/mL. 5 µL of this bacterial suspension was spotted onto the surface of each agar plate (~10^4 CFU/spot). Plates were sealed and incubated at 37°C for 18–20 hours. Agar MIC was recorded according to CLSI guidelines as the lowest concentration of […]
faint haze caused by the inoculum. Then 9 cm plates were prepared with 25 mL MHII agar medium containing 4 × or 8 × solid MIC concentrations of test compounds and seeded with 100 µL of a bacterial preparation, concentrated by centrifugation from overnight cultures and resuspended in 0.9% NaCl, corresponding to 108 CFU and 109 CFU per plate, and spread on the agar using 4–5 glass beads of 4 mm diameter. Since CFU were evaluated using the McFarland turbidity standard, the exact CFU number plated was evaluated by plating of serial dilutions of each inoculum preparation on MHII agar plates. Plates were incubated at 37°C and colonies were counted at 24 h and 48 h post-plating. The frequencies of resistance were then calculated by counting the number of validated resistant colonies growing on antibiotic preparations divided by the evaluated number of CFU in the inoculum.
Hemolysis assay. Compounds were evaluated for hemolytic activity using red blood cells from heparinized human blood. Red blood cells (RBC) were washed three times in Tyrode buffer (130 mM NaCl, 4 mM KCl, 2.8 mM NaOAc, 1 mM MgCl2, 10 mM HEPES, 10 mM glucose, 1 mM CaCl2, adjusted to pH 7.4) and resuspended in the same buffer. Final concentrations in the hemolysis assay were: 100 µM compound, 1% DMSO, and 50% RBC, assayed in a 200 µL volume in a microtiter plate. The mixture was incubated at 37 °C for 45 min with shaking (250 rpm). After incubation, RBCs were removed by centrifugation (1000 × g for 10 min), 100 µL clear plasma was transferred to a fresh microtiter plate, and the amount of hemoglobin measured using a spectrophotometer at 540 nm. The […]
complete lysis control contained 2% Triton X-100 (in Tyrode buffer) instead of compound; the negative control contained Tyrode buffer but no compound. Percent hemolysis was calculated as:
[Abs compound] - [Abs negative control] / [Abs complete lysis control] - [Abs negative control] ×
100. Values greater than 1% hemolysis at 100 µM were regarded as a red flag.
Bacterial membrane permeabilization assay. Liposomes were manufactured and permeabilization assayed as described previously.8 Briefly, dry lipid films of E. coli polar lipid extract were formed on round-bottom flask walls. This was achieved by dissolving lipids in chloroform and evaporating the solvent under agitation and nitrogen gas flow, followed by incubation in vacuum chamber. Lipid films were re-suspended by 30 min stirring (E. coli) at 55°C in an aqueous solution of 100 mM 5(6)-carboxyfluorescein in 10 mM Tris buffer (set to pH 7.4 at 37°C). Suspensions were subjected to repeated extrusion through a 100 nm pore size polycarbonate membrane in order to reduce multilamellar structures and polydispersity. Un-trapped carboxyfluorescein was removed by gel filtration. Membrane permeability was measured by monitoring carboxyfluorescein efflux from the liposomes to the external low concentration environment, resulting in loss of self-quenching and an increased fluorescence signal. The 96-well plates were prepared with a 2-fold serial dilution of the samples in Tris buffer, as well as negative controls (background) and 0.16% Triton X-100 (maximum […]
leakage). […]
`C/C=C1/NC(=O)[C@H](CCN)NC(=O)[C@H](CC(C)C)NC(=O)[C@H](CN)NC(=O)C[C@@H](CCCCCC(C)C)OC(=O)[C@H](CC(=O)O)NC(=O)[C@H](C(C)(C)O)NC(=O)[C@@H](Cc2ccccc2)NC(=O)[C@H](CN)NC(=O)[C@H]([C@@H](C)O)NC1=O` [Compound 1, cyclo(3-hydroxy-9-methyldecanoyl-DAPA1-Leu-DABA-ABA-Thr-DAPA2-Phe-OHVal-Asp)] ([Dap]L[Dab][X1]T[Dap][dF][Val(3-OH)]D; linker N-C via X3) gave a hemolysis at 45 min, 100 µM of 4.2%.

As to `C/C=C1/NC(=O)[C@H](CCN)NC(=O)[C@H](CC(C)C)NC(=O)[C@H](CN)NC(=O)C[C@@H](CCCCCCC)OC(=O)[C@H](CC(=O)O)NC(=O)[C@H](C(C)(C)O)NC(=O)[C@@H](Cc2ccccc2)NC(=O)[C@H](CN)NC(=O)[C@H]([C@@H](C)O)NC1=O` [Compound 2, isopedopeptin B] ([Dap]L[Dab][X1]T[Dap][dF][Val(3-OH)]D; linker N-C via X2), the hemolysis at 45 min, 100 µM was less than 0.8%.

`C/C=C1/NC(=O)[C@H](CCN)NC(=O)[C@H](CC(C)C)NC(=O)[C@H](CN)NC(=O)C[C@@H](CC=CCCCCCC)OC(=O)[C@H](CC(=O)O)NC(=O)[C@H](C(C)(C)O)NC(=O)[C@@H](Cc2ccccc2)NC(=O)[C@H](CN)NC(=O)[C@H]([C@@H](C)O)NC1=O` [Compound 3, isopedopeptin C] ([Dap]L[Dab][X1]T[Dap][dF][Val(3-OH)]D; linker N-C via X7) came in with a hemolysis at 45 min, 100 µM of 3%.

The molecule `C/C=C1/NC(=O)[C@H](CCN)NC(=O)[C@H](CC(C)C)NC(=O)[C@H](CN)NC(=O)C[C@@H](CCCCCCC)OC(=O)[C@H](CC(=O)O)NC(=O)[C@H](C(C)C)NC(=O)[C@@H](Cc2ccccc2)NC(=O)[C@H](CN)NC(=O)[C@H]([C@@H](C)O)NC1=O` [Compound 4, isopedopeptin D] ([Dap]L[Dab][X1]T[Dap][dF]VD; linker N-C via X2) yielded a hemolysis at 45 min, 100 µM of 9.1%.

In turn, `C/C=C1/NC(=O)[C@H](CCN)NC(=O)[C@H](CC(C)C)NC(=O)[C@H](CN)NC(=O)C[C@@H](CCCCCC(C)C)OC(=O)[C@H](CC(=O)O)NC(=O)[C@H](C(C)C)NC(=O)[C@@H](Cc2ccccc2)NC(=O)[C@H](CN)NC(=O)[C@H]([C@@H](C)O)NC1=O` [Compound 5, Isopedopeptin E] ([Dap]L[Dab][X1]T[Dap][dF]VD; linker N-C via X3) came in with a hemolysis at 45 min, 100 µM of 5.2%.

`C/C=C1/NC(=O)[C@H](CCN)NC(=O)[C@H](CC(C)C)NC(=O)[C@H](CN)NC(=O)C[C@@H](CCCCCCCC(C)C)OC(=O)[C@H](CC(=O)O)NC(=O)[C@H](C(C)(C)O)NC(=O)[C@@H](Cc2ccccc2)NC(=O)[C@H](CN)NC(=O)[C@H]([C@@H](C)O)NC1=O` [Compound 6, Isopedopeptin F] ([Dap]L[Dab][X1]T[Dap][dF][Val(3-OH)]D; linker N-C via X5) came in with a hemolysis at 45 min, 100 µM of 27.5%.

As for `C/C=C1/NC(=O)[C@H](CCN)NC(=O)[C@H](CC(C)C)NC(=O)[C@H](CN)NC(=O)C[C@@H](CCCC=CCCC(C)C)OC(=O)[C@H](CC(=O)O)NC(=O)[C@H](C(C)C)NC(=O)[C@@H](Cc2ccccc2)NC(=O)[C@H](CN)NC(=O)[C@H]([C@@H](C)O)NC1=O` [Compound 7, Isopedopeptin G] ([Dap]L[Dab][X1]T[Dap][dF]VD; linker N-C via X4), the hemolysis at 45 min, 100 µM turned out to be 14.1%.

Regarding `C/C=C1/NC(=O)[C@H](CCN)NC(=O)[C@H](CC(C)C)NC(=O)[C@H](CN)NC(=O)C[C@@H](CC=CCCCCC(C)C)OC(=O)[C@H](CC(=O)O)NC(=O)[C@H](C(C)C)NC(=O)[C@@H](Cc2ccccc2)NC(=O)[C@H](CN)NC(=O)[C@H]([C@@H](C)O)NC1=O` [Compound 8, Isopedopeptin H] ([Dap]L[Dab][X1]T[Dap][dF]VD; linker N-C via X6), the hemolysis at 45 min, 100 µM is 52.3%.
